According to patent publication US10738028B2, “Spiro three-membered ring, spiro five-membered ring peptide deformylase inhibitor and use thereof in antibacteria and anti-tumor” (priority 2016, dated 2020):
Converted amounts (≈) assume the structure as drawn.

Columns and labels:
Type in all cases: cell-based
[1] = test system: Escherichia coli (including ESBLs, non-ESBLs); experiment: MIC, two-fold agar dilution (CLSI), clinical isolates
From the text: (§1) 1. The invention adopts the two-fold agar dilution method recommended by the operating procedure of antimicrobial susceptibility testing set by American Clinical and Laboratory Standards Institute (CLSI) to determine the Minimum Inhibitory Concentration (MIC) of the test samples against the tested strains.

[2] = test system: methicillin-sensitive Staphylococcus epidermidis (MSSE); experiment: as above
From the text: as §1

[3] = test system: Enterococcus faecalis (EFA); experiment: as above
From the text: as §1

[4] = test system: Streptococcus pneoumoniae (SPN); experiment: as above
From the text: as §1

[5] = test system: Moraxella catarrhalis (BCA); experiment: as above
From the text: as §1

[6] = test system: Enterococcus faecium (EFM); experiment: as above
From the text: as §1

[7] = test system: methicillin-sensitive Staphylococcus aureus (MSSA); experiment: as above
From the text: as §1

[8] = test system: methicillin-resistant Staphylococcus epidermidis (MRSE); experiment: as above
From the text: as §1

[9] = test system: methicillin-resistant Staphylococcus aureus (MRSA); experiment: as above
From the text: as §1

[10] = test system: HCT-116 colorectal cancer cell line; experiment: CCK-8 proliferation inhibition; details: Homo sapiens, HCT-116, 72 h, concentration of 30 μM; 72 hours; CCK-8; read-out: HCT116 inhibition rate/%
Procedure, shortened: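 Cells seeded at 2000 cells/well, cultured overnight at 37 °C, 5% CO2, then exposed to compound (DMSO; control 1‰ DMSO) for 72 h in McCoy's 5A with 10% newborn bovine serum. Viability read with 1:10 diluted CCK-8.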

CCCC[C@H](CN(O)C=O)C(=O)N1CC2(CC2)C[C@H]1C(=O)Nc1cc(C)on1 [Example 21, (S)-5-((R)-2-((N-hydroxyformamido)methyl)hexanoyl)-N-(5-methylisoxazol-3yl)-5-spiro[2.4]heptane-6-carboxamide]
MIC (anti-bacterial activity) ([1]; strain ECO+ 15-1): 32 µg/mL (≈ 81.5 µM) | MIC (anti-bacterial activity) ([1]; strain ECO+ 15-2): 32 µg/mL (≈ 81.5 µM) | MIC (anti-bacterial activity) ([1]; strain ECO+ 15-3): 64 µg/mL (≈ 163 µM) | MIC (anti-bacterial activity) ([1]; strain ECO+ 15-4): 64 µg/mL (≈ 163 µM) | MIC (anti-bacterial activity) ([1]; strain ECO− 15-1): 64 µg/mL (≈ 163 µM) | MIC (anti-bacterial activity) ([1]; strain ECO− 15-2): 64 µg/mL (≈ 163 µM) | MIC (anti-bacterial activity) ([1]; strain ECO− 15-3): 64 µg/mL (≈ 163 µM) | MIC (anti-bacterial activity) ([1]; strain ECO− 15-4): 64 µg/mL (≈ 163 µM) | MIC (anti-bacterial activity) ([2]; strain MSSE 15-3): 0.5 µg/mL (≈ 1.27 µM) | MIC (anti-bacterial activity) ([2]; strain MSSE 15-4): 0.25 µg/mL (≈ 0.637 µM) | MIC (anti-bacterial activity) ([2]; strain MSSE 15-5): 0.03 µg/mL (≈ 0.0764 µM) | MIC (anti-bacterial activity) ([2]; strain MSSE 15-6): 0.03 µg/mL (≈ 0.0764 µM) | MIC (anti-bacterial activity) ([3]; strain EFA 15-1): 16 µg/mL (≈ 40.8 µM) | MIC (anti-bacterial activity) ([3]; strain EFA 15-2): 16 µg/mL (≈ 40.8 µM) | MIC (anti-bacterial activity) ([3]; strain EFA 15-3): 1 µg/mL (≈ 2.55 µM) | MIC (anti-bacterial activity) ([3]; strain EFA 15-4): 16 µg/mL (≈ 40.8 µM) | MIC (anti-bacterial activity) ([3]; strain EFA 15-5): 16 µg/mL (≈ 40.8 µM) | MIC (anti-bacterial activity) ([3]; strain EFA 15-6): 4 µg/mL (≈ 10.2 µM) | MIC (anti-bacterial activity) ([3]; strain EFA 15-9): 4 µg/mL (≈ 10.2 µM) | MIC (anti-bacterial activity) ([4]; strain SPN 16-2): 4 µg/mL (≈ 10.2 µM) | MIC (anti-bacterial activity) ([4]; strain SPN 16-4): 0.5 µg/mL (≈ 1.27 µM) | MIC (anti-bacterial activity) ([5]; strain BCA 14-1): 0.5 µg/mL (≈ 1.27 µM) | MIC (anti-bacterial activity) ([5]; strain BCA 14-4): 0.5 µg/mL (≈ 1.27 µM) | MIC (anti-bacterial activity) ([5]; strain BCA 14-5): 0.5 µg/mL (≈ 1.27 µM) | MIC (anti-bacterial activity) ([5]; strain BCA 14-6): 0.5 µg/mL (≈ 1.27 µM) | MIC (anti-bacterial activity) ([5]; strain BCA 14-7): 0.5 µg/mL (≈ 1.27 µM) | MIC (anti-bacterial activity) ([5]; strain BCA 14-8): 0.5 µg/mL (≈ 1.27 µM) | MIC (anti-bacterial activity) ([5]; strain BCA 14-10): 0.5 µg/mL (≈ 1.27 µM) | MIC (anti-bacterial activity) ([6]; strain EFM 15-1): 0.5 µg/mL (≈ 1.27 µM) | MIC (anti-bacterial activity) ([6]; strain EFM 15-2): 1 µg/mL (≈ 2.55 µM) | MIC (anti-bacterial activity) ([6]; strain EFM 15-3): 0.5 µg/mL (≈ 1.27 µM) | MIC (anti-bacterial activity) ([6]; strain EFM 15-4): 1 µg/mL (≈ 2.55 µM) | MIC (anti-bacterial activity) ([6]; strain EFM 15-5): 0.5 µg/mL (≈ 1.27 µM) | MIC (anti-bacterial activity) ([6]; strain EFM 15-6): 2 µg/mL (≈ 5.1 µM) | MIC (anti-bacterial activity) ([7]; strain MSSA 15-3): 0.5 µg/mL (≈ 1.27 µM) | MIC (anti-bacterial activity) ([7]; strain MSSA 15-4): 0.25 µg/mL (≈ 0.637 µM) | MIC (anti-bacterial activity) ([7]; strain MSSA 15-5): 0.25 µg/mL (≈ 0.637 µM) | MIC (anti-bacterial activity) ([7]; strain MSSA 15-6): 0.5 µg/mL (≈ 1.27 µM) | MIC (anti-bacterial activity) ([8]; strain MRSE 15-1): 0.25 µg/mL (≈ 0.637 µM) | MIC (anti-bacterial activity) ([8]; strain MRSE 15-2): 0.25 µg/mL (≈ 0.637 µM) | MIC (anti-bacterial activity) ([8]; strain MRSE 15-3): 0.25 µg/mL (≈ 0.637 µM) | MIC (anti-bacterial activity) ([8]; strain MRSE 15-7): 0.25 µg/mL (≈ 0.637 µM) | MIC (anti-bacterial activity) ([9]; strain MRSA 15-1): 0.25 µg/mL (≈ 0.637 µM) | MIC (anti-bacterial activity) ([9]; strain MRSA 15-2): 0.5 µg/mL (≈ 1.27 µM) | MIC (anti-bacterial activity) ([9]; strain MRSA 15-3): 0.5 µg/mL (≈ 1.27 µM) | MIC (anti-bacterial activity) ([9]; strain MRSA 15-4): 0.5 µg/mL (≈ 1.27 µM) | inhibition at 30 µM [10]: 8%
